What was measured:
full length PDK1 [1] = molecular target: T1, full length PDK1 (Homo sapiens, UniProt O15530); test: PDK1 enzyme assays (substrate phosphorylation: LEADseeker scintillation proximity, TR-FRET, PDKtide); type: biochemical; conditions: in at least one experimental run, read-out: IC50 against full length PDK1
T1 construct: Full-length human 3-Phosphoinositide Dependent protein Kinase-1; made in house; host or cells: baculovirus / Sf9 insect cells
T1 sequence (O15530 1-556): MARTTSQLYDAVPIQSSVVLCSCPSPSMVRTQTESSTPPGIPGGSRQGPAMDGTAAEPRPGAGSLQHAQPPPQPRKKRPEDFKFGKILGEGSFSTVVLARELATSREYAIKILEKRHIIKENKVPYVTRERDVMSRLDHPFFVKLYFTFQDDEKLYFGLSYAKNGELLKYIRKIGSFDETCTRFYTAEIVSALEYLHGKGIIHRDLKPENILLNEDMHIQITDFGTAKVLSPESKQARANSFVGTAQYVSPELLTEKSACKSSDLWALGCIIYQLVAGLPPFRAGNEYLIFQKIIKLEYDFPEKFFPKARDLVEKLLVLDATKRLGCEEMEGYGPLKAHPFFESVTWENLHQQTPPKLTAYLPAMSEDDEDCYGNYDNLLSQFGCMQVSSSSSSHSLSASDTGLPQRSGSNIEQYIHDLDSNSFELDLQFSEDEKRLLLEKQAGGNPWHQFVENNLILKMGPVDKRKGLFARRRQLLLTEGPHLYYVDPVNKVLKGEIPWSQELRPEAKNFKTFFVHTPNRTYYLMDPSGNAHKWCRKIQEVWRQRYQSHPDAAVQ
Protocol: Substrate phosphorylation assays are carried out as follows:
Biotinylated-hAKT1: Human AKT1 (containing amino acid residues 136-480, as annotated by National Center for Biotechnology Information (NCBI) accession number AAL55732.1, with a MetLysLysHis6 N-terminal addition) is purified to >90% from lysate of baculovirus expression by Nickel Chelating ProBond resin (InVitrogen), Q-Sepharose Fast Flow, and Superdex 200 size exclusion chromatography. Biotinylation is achieved using EZ-Link Sulfo-NHS-LC Biotin (Pierce). Samples, in 25 mM HEPES, pH 7.5, 200 mM NaCl, 2 mM DTT, and 30% glycerol are stored at −80C until use.
(§1) Full-length human 3-Phosphoinositide Dependent protein Kinase-1 (hPDK1; National Center for Biotechnology Information (NCBI) accession number AAH39158.1 with a MetGlyHis6 N-terminal addition) is purified from baculovirus expression in Sf9 cells. Purity of approximately 80% is achieved by the use of chelation chromatography (Ni-NTA Superflow) and desalting columns. Samples, in 25 mM HEPES, 150 mM NaCl, 2.5 mM DTT, 0.05% Triton, 30% glycerol, pH 8.0, are stored at −80° C. until use.
The 39 amino acid biotinylated-PDKtide peptide Seq. ID No. 1: (Biotin-Ahx-[…]) was custom synthesized by 21st Century Biochemicals. […] The concentration was confirmed by quantitative amino acid analysis.
Scintillation Proximity (LEADseeker) Kinase Assay of Purified hPDK1:
Assays are performed in 384-well microtiter plates (Greiner, Catalog No. 784075). The reaction volume (10 μl) contains, in final concentrations, 25 mM MOPS (pH 7.5), 10 mM MgCl2, 50 mM KCl, 0.1 mg/ml BSA, 1 μM ATP, 3 uCi/ml ^33PγATP, 5 mM DTT, 1 mM CHAPS or 0.05% Tween20, 0.35 μM AKT1 biotinylated protein, and 10 nM hPDK1.
Compounds, titrated in DMSO, are evaluated at eleven concentrations ranging from 50 μM to 2 μM. […] Reactions are stopped after 3 hours at room temperature by the addition of 50 mM EDTA, 5 mg/ml LEADseeker beads (GE Healthcare) in PBS (10 ul). Beads are allowed to settle overnight, and samples are imaged on Viewlux (PerkinElmer).
(§2) The data for compound concentration responses were plotted as % Inhibition, calculated with the data reduction formula 100*(1−[(U1−C2)/(C1−C2)]), versus concentration of compound, where
(§3) Data were fitted to the curve described by:
TR-FRET Kinase Assay of Purified hPDK1:
Assays are performed in 384-well microtiter plates (Greiner, Catalog No. 784076).
As previously described for the Scintillation Proximity protocol, hPDK1 is pre-incubated (30 minutes at room temperature) with compounds before initiating phosphorylation of AKT1 by addition of substrate to the hPDK1 and compound mix. Reactions are stopped after 4-6 hours at room temperature by the addition to final concentrations of 0.02 M EDTA, 0.0875 μM Streptavidin APC (PerkinElmer), 0.03 μM AKT1 (phospho T308) antibody (Abcam Inc.), 0.00375 μM Lance Eu-labeled anti rabbit IgG Antibody (PerkinElmer). Antibody binding reaches equilibrium in 30 minutes before signal is read on an EnVision™ 2103 Multilabel Reader (PerkinElmer). APC Signals are normalized to Europium signal. Data processing is the same as described for the Scintillation Proximity assay with the exception of the generation of the “C2” control by addition of buffer without hPDK1 to control wells at t=0 instead of EDTA.
(§4) Scintillation Proximity (LEADseeker) Kinase Assay of Purified hPDK1 using Biotinylated-PDKtide Peptide:
(§5) Assays are performed in 384-well microtiter plates (Greiner, Catalog No. 784075). The reaction volume (10 μl) contains, in final concentrations, 25 mM MOPS (pH 7.5), 10 mM MgCl2, 50 mM KCl, 0.1 mg/ml BSA, 1 μM ATP, 3 uCi/ml ^33PγATP, 5 mM DTT, 0.5 mM CHAPS, 1 μM biotinylated-PDKtide peptide, and 0.5 nM hPDK1.
Compounds, titrated in DMSO, are evaluated at eleven concentrations ranging from 25 μM to 0.4 pM. […] Reactions are stopped after 4 hours at room temperature by the addition of 50 mM EDTA, 5 mg/ml LEADseeker beads (GE Healthcare) in PBS (10 ul).

full length PDK1 [2] = molecular target: T1, full length PDK1; test: Scintillation Proximity (LEADseeker) kinase assay of purified hPDK1 using biotinylated-PDKtide peptide; type: biochemical; conditions: in at least one experimental run; PDKtide substrate; read-out: IC50 against full length PDK1 using the PDKtide substrate assay
Protocol: as §1
The 39 amino acid biotinylated-PDKtide peptide Seq. ID No. 1: (Biotin-Ahx-[…]) was custom synthesized by 21st Century Biochemicals. The peptide was >95% pure and dissolved in HPLC grade water to give a final concentration of 1.1 mM. The concentration was confirmed by quantitative amino acid analysis.
as §4, §5
Compounds, titrated in DMSO, are evaluated at eleven concentrations ranging from 25 μM to 0.4 pM. […] No effect on activity relative to controls without DMSO is observed for hPDK1 at these DMSO amounts. hPDK1 is pre-incubated, 30 minutes at room temperature, with compounds before initiating phosphorylation of biotinylated-PDKtide peptide by addition of substrate to hPDK1/compound. Reactions are stopped after 4 hours at room temperature by the addition of 50 mM EDTA, 5 mg/ml LEADseeker beads (GE Healthcare) in PBS (10 ul). Beads are allowed to settle overnight, and samples are imaged on Viewlux (PerkinElmer).
as §2, §3
The results for each compound were recorded as pIC50 calculated as follows: […]

[3] = test system: AKT phosphorylation at T308 in PC-3 cells; test: Phospho-AKT (T308) ELISA in PC3 cells; type: cell-based; conditions: Homo sapiens, 6 hours compound treatment, in at least one experimental run, read-out: IC50 for inhibition of AKT phosphorylation at T308 in PC-3 cells
Protocol: Phospho-AKT (S473, T308, Total AKT) and phospho-RSK ELISA
PC3 cells (ATCC, Manassas, Va.) were plated in 96-well flat bottom plates (Corning, Lowell, Mass.) at a density of 15,000 cells/well in RPMI 1640 medium supplemented with 10% FBS. Cells were incubated at 37° C., 5% CO2 for 18-20 h. Compounds (dissolved in 100% DMSO) were diluted in an 11-point 3-fold dilution in DMSO. Compound dilution stocks were further diluted in RPMI 1640 with 10% FBS and added to each cell well. DMSO without compound was used in control wells. Final concentration of DMSO in each well was 0.15%. After 6 hours at 37° C. cells were washed with cold PBS (without calcium or magnesium) and lysed in lysis buffer (Meso Scale Discovery, Gaithersburg, Md.) supplemented with 1 protease inhibitor tablet/10 ml (Roche, Indianapolis, Ind.), 10 mM NaF, and 200 μl/10 ml Sigma phosphatase inhibitor 1 & 2 (Sigma Aldrich, St Louis, Mo.) for 30 min at 4° C. All washes were performed on a Bio Tek ELx405 plate washer (Bio Tek Instruments, Winooski, Vt.).
ELISA plates (Meso Scale Discovery; AKT Duplex, cat. N41100B-1; phospho AKT, cat. N411CAB-1; RSK, cat. N41ZB-1) were prepared by the addition of blocking buffer (3% Blocker A diluted in wash buffer (Meso Scale Discovery) for AKT duplex assay and phospho AKT assays; 5% Blocker A/1% Blocker B in Tris-buffered saline for RSK) for 1 hour and washed with wash buffer. Lysates were transferred to assay wells and incubated overnight at 4° C. Following washing with wash buffer, detection buffer (1% Blocker A in wash buffer for AKT duplex and phospho AKT or 1% Blocker A in TBS for RSK) with appropriate antibodies was added. Detection of AKT duplex and phospho AKT was carried out using a sulfo-tagged detection antibodies (Meso Scale Discovery). Detection of phospho-RSK was carried out sequentially with anti phospho-RSK1 (S221)/RSK2 (S227) (R&D systems, Minneapolis, Minn., cat. AF892) and goat anti-rabbit sulfo-tag antibody (cat R32AB-1; Meso Scale Discovery). Plates were incubated for 1 hour at room temperature and washed with wash buffer. Plates were read on a SECTOR™ Imager 6000 (Meso Scale Discovery) using Workbench software (Meso Scale Discovery) following addition of read buffer (Meso Scale Discovery) to each well. For analysis, phospho-AKT (S473) signals were normalized to total AKT, while phospho-AKT (T308) and phospho-RSK signals were analyzed without normalization. All values were expressed as percent of the DMSO-treated controls. IC50s were determined from inhibition curves using XLfit4 software (IDBS, Guildford, UK).

Row | SMILES | IC50 (full length PDK1 [1]) [nM] | IC50 (full length PDK1 [2]) [nM] | IC50 [3] [nM]
1 | Nc1nc(NC2(Cc3ccccc3)CC2)cc(-c2ccc3c(N)n[nH]c3c2)n1 [Example 61, 6-(3-Amino-1H-indazol-6-yl)-N^4-[1-(phenylmethyl)cyclopropyl]-2,4-pyrimidinediamine] | < 100 | 10 | 
2 | CNc1nc(-c2ccc3c(C)n[nH]c3c2)cc(N2C[C@@H](C(=O)NC3CCCCC3)CC[C@H]2C)n1 [Example 83, (3S,6R)—N-Cyclohexyl-6-methyl-1-[2-(methylamino)-6-(3-methyl-1H-indazol-6-yl)-4-pyrimidinyl]-3-piperidinecarboxamide] | < 20 |  | < 1000
3 | CNc1nc(-c2ccc3c(N)n[nH]c3c2)cc(N2C[C@@H](C(=O)NCc3ccccc3)OC[C@H]2C)n1 [Example 161, (2S,5R)-4-[6-(3-Amino-1H-indazol-6-yl)-2-(methylamino)-4-pyrimidinyl]-5-methyl-N-(phenylmethyl)-2-morpholinecarboxamide] | < 20 |  | < 1000
4 | COc1cc(-c2cc(N3C[C@H](C)C[C@@H](NC(=O)OC(C)(C)C)C3)nc(N)n2)cc2[nH]nc(N)c12 [Example 214, 1,1-Dimethylethyl((3R,5R)-1-[2-amino-6-[3-amino-4-(methyloxy)-1H-indazol-6-yl]-4-pyrimidinyl]-5-methyl-3-piperidinyl)carbamate] | < 50 | 2 | 

The next lines start with the values.

Row | IC50 (full length PDK1 [1]) [nM] | IC50 (full length PDK1 [2]) [nM] | IC50 [3] [nM] | SMILES
5 | < 20 | 7.9 |  | CC[C@@H]1CO[C@H](C(=O)NC2CCCCC2)CN1c1cc(-c2ccc3c(N)n[nH]c3c2)nc(N)n1 [Example 173, (2S,5R)-4-[2-Amino-6-(3-amino-1H-indazol-6-yl)-4-pyrimidinyl]-N-cyclohexyl-5-ethyl-2-morpholinecarboxamide]
6 | < 150 | 25 |  | CC[C@@H]1COCCN1c1cc(-c2ccc3c(N)n[nH]c3c2)nc(NC)n1 [Example 177, 6-[6-[(3R)-3-Ethyl-4-morpholinyl]-2-(methylamino)-4-pyrimidinyl]-1H-indazol-3-amine]
7 | < 50 |  | < 1000 | C[C@@H]1C[C@@H](N(C)C(=O)OC(C)(C)C)CN(c2cc(-c3ccc4c(N)n[nH]c4c3)nc(N)n2)C1 [Example 221, 1,1-Dimethylethyl{(3R,5R)-1-[2-amino-6-(3-amino-1H-indazol-6-yl)-4-pyrimidinyl]-5-methyl-3-piperidinyl}methylcarbamate]
